This note sets out measurements from article PMC3723878 (PLoS ONE, 2013).

Positions count from the first letter of the chain named.

What all share (experiment): Saturation binding of ^125I-HEAT
In test [1] the target is T1, human α1A-AR F187A variant (Homo sapiens, UniProt P35348, F187A).
T1 construct: expressed in transfected cells; host or cells: COS-7, transient (calcium phosphate)
T1 sequence (P35348 1-466 F187A): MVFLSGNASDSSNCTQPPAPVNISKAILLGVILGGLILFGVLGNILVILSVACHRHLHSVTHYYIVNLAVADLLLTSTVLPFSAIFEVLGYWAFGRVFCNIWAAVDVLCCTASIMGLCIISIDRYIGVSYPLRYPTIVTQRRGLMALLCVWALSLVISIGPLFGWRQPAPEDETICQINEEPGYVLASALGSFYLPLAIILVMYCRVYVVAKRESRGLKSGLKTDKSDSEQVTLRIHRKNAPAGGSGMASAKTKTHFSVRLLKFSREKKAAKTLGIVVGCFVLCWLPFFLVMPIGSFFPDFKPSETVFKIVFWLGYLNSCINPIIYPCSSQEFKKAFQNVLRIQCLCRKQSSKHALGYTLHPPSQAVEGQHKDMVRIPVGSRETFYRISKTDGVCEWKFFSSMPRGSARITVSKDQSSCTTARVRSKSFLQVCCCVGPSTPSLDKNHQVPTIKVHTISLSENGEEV
From the text:
(§1) α1A-AR cDNA inserted in the prK5 vector was kindly provided by Michael Brownstein (Craig Venter Institute, Rockville, MD). Point mutations were introduced into the α1A-AR gene by sense and antisense primers (Sigma-Aldrich, St Quentin-Fallavier, France) containing the desired changes, using the QuikChange Site-Directed Mutagenesis kit. The incorporation of each mutation was verified by DNA sequencing.
(§2) CHO cells stably expressing α1-ARs were kindly provided by Dr. Hervé Paris (INSERM U858, Toulouse, France) and were grown in a 50∶50 Dulbecco's Modified Eagle's Medium (DMEM)/Ham's F12 medium supplemented with 10% (v/v) foetal bovine serum (FBS), glutamine (2 mM), penicillin (100 units/ml) and streptomycin (100 µg/ml) at 37°C with 5% CO2. COS-7 cells were grown at 37°C under 5% CO2 in Dulbecco's modified Eagle's medium containing 10% fetal calf serum, 1% penicillin and 1% glutamine (Sigma-Aldrich, St Quentin-Fallavier, France). At 80% confluence, the cells were transfected using a calcium phosphate precipitation method for transient expression of the genetic construct. After 48 h incubation at 37°C, cells were harvested and the membranes were prepared as follow. Cells were washed with ice-cold phosphate buffer and centrifuged at 1700 g for 10 min (4°C). The pellet was suspended in ice-cold buffer (1 mM EDTA, 25 mM sodium phosphate, and 5 mM MgCl2, pH 7.4) and homogenized using an Potter-Elvehjem homogenizer (Fisher Scientific Labosi, Elancourt, France). The homogenate was centrifuged at 1700 g for 15 min (4°C). The sediment was resuspended in buffer, homogenized, and centrifuged at 1700 g for 15 min (4°C). The combined supernatants were centrifuged at 35,000 g for 30 min (4°C), and the pellet was suspended in the same buffer (0.1 ml/dish). […] Cells were grown in a 50∶50 Dulbecco's Modified Eagle's Medium (DMEM)/Ham's F12 medium supplemented with 10% (v/v) foetal bovine serum (FBS), glutamine (2 mM), penicillin (100 units/ml) and streptomycin (100 µg/ml) at 37°C with 5% CO2. Media was changed every 2–3 days and cells were passaged when confluent with 0.05% trypsin and 0.02% EDTA.
(§3) Binding experiments were performed in a 100 µL reaction mix at room temperature in buffer composed of 50 mM Tris-HCl, pH 7.4, 10 mM MgCl2, 1 g/L BSA. Reactions were stopped by filtration through 96 GF/C filter plates pre-incubated with 0.5% polyethylenimine.
(§4) Binding data were analyzed by nonlinear regression using the KaleidaGraph 4.0 software (Synergy software, Reading, PA). pKD values and Bmax (number of binding sites) were determined by applying a nonlinear regression to data obtained with saturation binding assays. The nonlinear regression used was BS = (Bmax*A)/KD+A, where BS is the specific binding, Bmax the number of binding sites, A the concentration of radioligand, and KD the dissociation constant of the radioligand. Data resulting from competition binding assays were analyzed using the Hill equation for IC50 and curve slope estimations. […] The linear curves were analyzed with IC50 = Ki+(L/KD)*Ki. Dissociation kinetics were analyzed using a simple equation of exponential decay BS * exp (-Koff*t), where BS is the specific binding at time zero and Koff is the dissociation rate constant. Results are expressed as mean ± s.e. mean from n independent experiments. One-way Anova test was used to compare values. A p<0.05 was accepted for statistical significance.

Test [2] deals with T2, human α1A-AR F281A variant (Homo sapiens, UniProt P35348, F281A).
T2 construct: expressed in transfected cells; host or cells: COS-7, transient (calcium phosphate)
T2 sequence (P35348 1-466 F281A): T1 sequence (P35348 1-466 F187A) with A187F, F281A
From the text: as §1, §2, §3, §4

In test [3] the target is T3, human α1A-AR F86A variant (Homo sapiens, UniProt P35348, F86A).
T3 construct: expressed in transfected cells; host or cells: COS-7, transient (calcium phosphate)
T3 sequence (P35348 1-466 F86A): T1 sequence (P35348 1-466 F187A) with F86A, A187F
Conditions: F86A (2.64), n = 3–6.
From the text: as §1, §2, §3, §4

As for `O=C1c2ccccc2CCC1CNCCc1ccc(O)c([125I])c1` (centres unmarked) [125I-HEAT], the “^125I-HEAT Ratio (loss of affinity relative to WT)” value in test [1] (F187A) was 0.22 ^*; in test [2] (F281A), 3.9. The “^125I-HEAT pKd” value is 10.70±0.01 in test [1] (F187A (5.41), saturation binding, n = 3–6); 9.46±0.09 in test [2] (F281A (6.44), saturation binding, n = 3–6); 8.68±0.09 in test [3].
